# Reference: US4078079A, “Thiocyano-xanthate miticides” (Stauffer Chemical Company, priority 1976, dated 1978)
# Where two headings read alike, the source gives them in different places.
# Legend:
# [1] = system: Pencillium italicum; test: In Vitro Agar Screening Tests (Example 5); format: cell-based; conditions: Penicillium italicum, P. italicum, potato dextrose, 30° C, read-out: Minimum Inhibitory Concentration
# Procedure: (§1) This test measures the bactericidal and fungicidal properties of a compound when in contact with growing bacteria or fungi in an artificial medium. The test is conducted by adding 20 ml. portions of a suitable warm sterile agar solution into 20 × 100 Petri dishes. Then, the test compound, in 0.5% acetone solution, is added to the Petri dishes at levels of 1, 5, 10 and 50 ug/ml. and mixed with the warm mobile agar solution. The treated agar mixture is then allowed to come to room temperature and solidify. Cells of the chosen organism are streaked on the surface of the solidified agar and are then incubated for such lengths of time that untreated samples containing no toxicant show luxurious growth typical of the particular organism. This time varies from 24 hours to one week depending on the particular organism. The fungi are incubated at 30° C and the bacteria are incubated at 37° C. Nutrient agar is used as the medium in this test for the bacteria. Potato dextrose is used as the medium for the fungi. The extent of growth is noted at the end of the incubation period.
# [2] = system: Aspergillus niger; test: In Vitro Agar Screening Tests (Example 5); format: cell-based; conditions: A. niger, potato dextrose, 30° C, read-out: Minimum Inhibitory Concentration
# Procedure: as §1
# [3] = system: Staphylococcus aureus; test: In Vitro Agar Screening Tests (Example 5); format: cell-based; conditions: S. aureus, nutrient agar, 37° C, read-out: Minimum Inhibitory Concentration
# Procedure: as §1
# [4] = system: Two-spotted Mite (2-SM) Tetranychus urticae (Koch) eggs; test: Plant Dip Assay on Two-Spotted Mite, 2-SM Eggs; format: in vivo; conditions: infested Pinto Bean plants dipped 2-3 seconds, mortality after seven days, nymphs hatching from eggs
# Source text: (§2) The Two-spotted Mite (2-SM) Tetranychus urticae (Koch) is subjected to evaluation tests for miticidal activity. Plant Dip Assay on Two-Spotted Mite [Tetranychus urticae (Koch)] Pinto Bean plants (Phaseolus sp.) approximately 10 cm tall, are transplanted into sandy loam soil in 3 inch clay pots and thoroughly infested with two-spotted mites of mixed ages and sexes. Twenty-four hours later the infested plants are inverted and dipped for 2-3 seconds in 50-50 acetone-water solutions of the test chemicals. Treated plants are held in the greenhouse, and seven days later mortality is determined for both the adult mites and the nymphs hatching from eggs which were on the plants at the time of treatment. Test concentrations range from 0.05% down to that at which 50% mortality occurs. The values obtained in this test are found in Table VII under the Columns 2SM-PE and 2SM-Eggs.
# [5] = system: Escherichia coli; test: In Vitro Agar Screening Tests (Example 5); format: cell-based; conditions: E. coli, nutrient agar, 37° C, read-out: Minimum Inhibitory Concentration
# Procedure: as §1
# [6] = system: Two-spotted Mite (2-SM) Tetranychus urticae (Koch); test: Plant Dip Assay on Two-Spotted Mite, 2-SM PE; format: in vivo; conditions: infested Pinto Bean plants dipped 2-3 seconds, mortality after seven days, adult mites
# Source text: as §2
# [7] = partial control at this concentration
Structure (SMILES),MIC [1] [µg/mL],MIC [2] [µg/mL],MIC [3] [µg/mL],2-SM Eggs: concentration at which 50% mortality occurs [4],MIC [5] [µg/mL],2-SM PE: concentration at which 50% mortality occurs [6],"MIC [1, 7] [µg/mL]","MIC [2, 7] [µg/mL]","MIC [3, 7] [µg/mL]","MIC [5, 7] [µg/mL]"
N#CSCSC(=S)OCCOc1ccccc1 [Compound 2],0.25,1,10,–,–,–,–,–,–,–
COCCOC(=S)SCSC#N [Compound 3],0.5,5,50,.01%,50,.01%,–,–,–,–
CCSCCOC(=S)SCSC#N [Compound 4],0.5,5,5,–,50,–,–,–,–,–
CCCCOCCOC(=S)SCSC#N [Compound 6],0.5,0.5,5,–,50,.03%,–,–,–,–
CCCCOCCOCCOC(=S)SCSC#N [Compound 7],5,5,5,–,–,.03%,–,–,–,–
N#CSCSC(=S)OCCOc1ccccc1Cl [Compound 8],0.5,5,10,–,–,.05%,–,–,–,–
N#CSCSC(=S)OCCSc1ccccc1 [Compound 9],1,1,5,> .05%,–,> .05%,–,–,–,–
Cc1ccc(OCCOC(=S)SCSC#N)cc1 [Compound 10],0.25,1,10,> .05%,–,> .05%,–,–,–,–
COc1ccc(OCCOC(=S)SCSC#N)cc1 [Compound 11],–,1,5,.05%,25,.05%,0.25,–,–,–
Cc1ccccc1OCCOC(=S)SCSC#N [Compound 12],–,1,5,.03%,> 50,.01%,0.125,–,–,–
N#CSCSC(=S)OCCOc1ccc(Cl)cc1 [Compound 13],–,1,5,> .05%,> 50,> .05%,0.5,–,–,–
N#CSCSC(=S)OCCSc1ccc(Cl)cc1 [Compound 14],–,–,< 5,.003%,> 50,.008%,1,1,–,–
N#CSCSC(=S)OCCSc1ccc2ccccc2c1 [Compound 15],5,–,–,> .05%,> 50,> .05%,–,5,0.25,–
Cc1ccc(SCCOC(=S)SCSC#N)cc1 [Compound 17],–,–,5,> .05%,–,> .05%,0.5,1,–,50
N#CSCSC(=S)OCCOc1ccc(Cl)cc1Cl [Compound 18],5,5,5,–,–,–,–,–,–,–
